24 compounds from patent US10233182B2, “Substituted spirocyclic inhibitors of autotaxin” (X-Rx, Inc., priority 2014, dated 2019) can be followed below.

Where a name gives a salt, the structure may show the parent alone. Where only a bound is given, the exact number is not on record here.

For this assay, the target named is Autotaxin (Homo sapiens (Human), UniProt Q13822). Put plainly: Autotaxin LPC Cascade Assay. It counts as biochemical. The following applies: Autotaxin 5 nM, LPC 100 μM, choline oxidase/HRP/Ampliflu Red fluorescence read-out, 2% DMSO, RT; read-out: IC50 ATX Activity. The method, then: Autotaxin LPC Cascade Assay:
HA130 and Test Compounds:
Prepare a 1 mM stock of HA130 and a 3 mM stock of each compound in 100% DMSO. Perform a 1:3 serial dilution in DMSO (transfer 5 l of compound to 10 l of DMSO). Add 240 l of buffer to generate a top working concentration of 40 µM (HA130) and 120 µM (test compound) in 4% DMSO.
Ampliflu Red—Prepare a stock of 5 mM from 100 mM in 100% DMSO. Further dilute to a working concentration of 400 μM in buffer (8% DMSO).
Together with compound this yields a 2% DMSO final concentration.
Choline Oxidase/HRP—0.8 U/mL CO and 8 U/mL HRP.
Incubate for 10 mins at RT. Add 5 µl of LPC and incubate for 1 hr on the plate shaker. Prepare the CO/HRP and AR immediately prior to use. Add 2.5 l of CO/HRP and follow with 2.5 l AR. Note order of addition, CO/HRP mix before AR. Read fluorescence intensity (ex/em: 530/590 nm) kinetically for 30 min at RT on the Tecan M1000.
The IC50 is the point on the concentration scale where inhibition reaches its midpoint. Turning to `Cc1cccc(C(=O)N[C@@H](C(=O)N2CCC3(CC2)C(=O)N(C)CN3c2ccccc2)C2CCOCC2)c1` (single isomer, unassigned) [Example 129], the IC50 was 500 to 1000 nM.
To `CCc1ccc(F)c(C(=O)N[C@@H](C(=O)N2CCC3(CC2)C(=O)N(C)[C@H](C)N3c2ccc(C(=O)O)cc2)C(C)C)c1` (single isomer, unassigned) [Example 210] belongs less than 500 nM; to `CCc1ccc(F)c(C(=O)N[C@@H](C(=O)N2CCC3(CC2)C(=O)N(C)[C@@H](C)N3c2ccc(C(=O)O)cc2)C(C)C)c1` (single isomer, unassigned) [Example 211], less than 500 nM; to `Cc1cccc(C(=O)N[C@@H](C(=O)N2CCC3(CC2)C(=O)N(C)C(=O)N3c2ccccc2)C2CCCCC2)c1` [Example 1, (R)—N-(1-Cyclohexyl-2-(3-methyl-2,4-dioxo-1-phenyl-1,3,8-triazaspiro[4.5]decan-8-yl)-2-oxoethyl)-3-methylbenzamide], less than 500 nM.
For `CC(C)[C@@H](NC(=O)c1cccc(F)c1)C(=O)N1CCC2(CC1)C(=O)N(C)C(=O)N2c1ccccc1` [Example 2, (R)-3-Fluoro-N-(3-methyl-1-(3-methyl-2,4-dioxo-1-phenyl-1,3,8-triazaspiro[4.5]decan-8-yl)-1-oxobutan-2-yl)benzamide], the 50% inhibitory concentration (IC50) is no less than 1000 nM.
Take `Cc1cccc(C(=O)N[C@@H](C(=O)N2CCC3(CC2)C(=O)N(C)C(=O)N3c2ccccc2)C(C)C)c1F` [Example 3, (R)-2-Fluoro-3-methyl-N-(3-methyl-1-(3-methyl-2,4-dioxo-1-phenyl-1,3,8-triazaspiro[4.5]decan-8-yl)-1-oxobutan-2-yl)benzamide]: the IC50 was 500 to 1000 nM.
To `CC[C@@H](C)[C@@H](NC(=O)c1cccc(C)c1F)C(=O)N1CCC2(CC1)C(=O)N(C)C(=O)N2c1ccccc1` [Example 4, 2-Fluoro-3-methyl-N-((2R,3R)-3-methyl-1-(3-methyl-2,4-dioxo-1-phenyl-1,3,8-triazaspiro[4.5]decan-8-yl)-1-oxopentan-2-yl)benzamide] belongs less than 500 nM; to `CCc1ccc(F)c(C(=O)N[C@@H](C(=O)N2CCC3(CC2)C(=O)N(CC#N)C(=O)N3c2ccc(OC)cc2)C(C)C)c1` [Example 5, (R)—N-(1-(3-(Cyanomethyl)-1-(4-methoxyphenyl)-2,4-dioxo-1,3,8-triazaspiro[4.5]decan-8-yl)-3-methyl-1-oxobutan-2-yl)-5-ethyl-2-fluorobenzamide], less than 500 nM.
Next, `COc1ccc(N2C(=O)N(C)C(=O)C23CCN(C(=O)[C@H](NC(=O)c2cc(C(F)(F)F)ccc2F)C(C)C)CC3)cc1F` [Example 6, (R)-2-Fluoro-N-(1-(1-(3-fluoro-4-methoxyphenyl)-3-methyl-2,4-dioxo-1,3,8-triazaspiro[4.5]decan-8-yl)-3-methyl-1-oxobutan-2-yl)-5-(trifluoromethyl)benzamide]: less than 500 nM.
With `CC(C)[C@@H](NC(=O)c1cc(C(F)(F)F)ccc1F)C(=O)N1CCC2(CC1)C(=O)N(C)C(=O)N2c1ccc(C#N)cc1` [Example 7, (R)—N-(1-(1-(4-Cyanophenyl)-3-methyl-2,4-dioxo-1,3,8-triazaspiro[4.5]decan-8-yl)-3-methyl-1-oxobutan-2-yl)-2-fluoro-5-(trifluoromethyl)benzamide], the 50% inhibitory concentration (IC50) was less than 500 nM.
Regarding `CC(C)[C@@H](NC(=O)c1cc(C(F)(F)F)ccc1F)C(=O)N1CCC2(CC1)C(=O)N(C)C(=O)N2c1cccc(C#N)c1` [Example 8, (R)—N-(1-(1-(3-Cyanophenyl)-3-methyl-2,4-dioxo-1,3,8-triazaspiro[4.5]decan-8-yl)-3-methyl-1-oxobutan-2-yl)-2-fluoro-5-(trifluoromethyl)benzamide], the IC50 was less than 500 nM.
Take `CC(C)[C@@H](NC(=O)c1cc(C(F)(F)F)ccc1F)C(=O)N1CCC2(CC1)C(=O)N(C)C(=O)N2c1ccc(S(C)(=O)=O)cc1` [Example 9, (R)-2-Fluoro-N-(3-methyl-1-(3-methyl-1-(4-(methylsulfonyl)phenyl)-2,4-dioxo-1,3,8-triazaspiro[4.5]decan-8-yl)-1-oxobutan-2-yl)-5-(trifluoromethyl)benzamide]: the concentration for half-maximal inhibition (IC50) lay in the range of 500 to 1000 nM.
As for `COc1cccc(N2C(=O)N(C)C(=O)C23CCN(C(=O)[C@H](NC(=O)c2cc(C(F)(F)F)ccc2F)C(C)C)CC3)c1` [Example 10, (R)-2-Fluoro-N-(1-(1-(3-methoxyphenyl)-3-methyl-2,4-dioxo-1,3,8-triazaspiro[4.5]decan-8-yl)-3-methyl-1-oxobutan-2-yl)-5-(trifluoromethyl)benzamide], the concentration for half-maximal inhibition (IC50) is less than 500 nM.
In the case of `CC(C)[C@@H](NC(=O)c1cc(C(F)(F)F)ccc1F)C(=O)N1CCC2(CC1)C(=O)N(C)C(=O)N2c1ccc2oc(=O)n(C)c2c1` [Example 11, (R)-2-Fluoro-N-(3-methyl-1-(3-methyl-1-(3-methyl-2-oxo-2,3-dihydrobenzo[d]oxazol-5-yl)-2,4-dioxo-1,3,8-triazaspiro[4.5]decan-8-yl)-1-oxobutan-2-yl)-5-(trifluoromethyl)benzamide], the IC50 was no less than 1000 nM.
For `CC(C)[C@@H](NC(=O)c1cc(C(F)(F)F)ccc1F)C(=O)N1CCC2(CC1)C(=O)N(C)C(=O)N2c1ccc2c(cnn2C)c1` [Example 12, (R)-2-Fluoro-N-(3-methyl-1-(3-methyl-1-(1-methyl-1H-indazol-5-yl)-2,4-dioxo-1,3,8-triazaspiro[4.5]decan-8-yl)-1-oxobutan-2-yl)-5-(trifluoromethyl)benzamide], the 50% inhibitory concentration (IC50) is less than 500 nM.
With `CC(C)[C@@H](NC(=O)c1cc(C(F)(F)F)ccc1F)C(=O)N1CCC2(CC1)C(=O)N(C)C(=O)N2c1ccc2nn(C)cc2c1` [Example 13, (R)-2-Fluoro-N-(3-methyl-1-(3-methyl-1-(2-methyl-2H-indazol-5-yl)-2,4-dioxo-1,3,8-triazaspiro[4.5]decan-8-yl)-1-oxobutan-2-yl)-5-(trifluoromethyl)benzamide], the half-inhibitory concentration (IC50) was less than 500 nM.
Next, `CC(C)[C@@H](NC(=O)c1cc(C(F)(F)F)ccc1F)C(=O)N1CCC2(CC1)C(=O)N(C)C(=O)N2c1ccc2nccn2c1` [Example 14, (R)-2-Fluoro-N-(1-(1-(imidazo[1,2-a]pyridin-6-yl)-3-methyl-2,4-dioxo-1,3,8-triazaspiro[4.5]decan-8-yl)-3-methyl-1-oxobutan-2-yl)-5-(trifluoromethyl)benzamide trifluoroacetic Acid Salt]: less than 500 nM; `CC(C)[C@@H](NC(=O)c1cc(C(F)(F)F)ccc1F)C(=O)N1CCC2(CC1)C(=O)N(C)C(=O)N2c1cccc(S(C)(=O)=O)c1` [Example 15, (R)-2-Fluoro-N-(3-methyl-1-(3-methyl-1-(3-(methylsulfonyl)phenyl)-2,4-dioxo-1,3,8-triazaspiro[4.5]decan-8-yl)-1-oxobutan-2-yl)-5-(trifluoromethyl)benzamide]: no less than 1000 nM.
To `CC(C)[C@@H](NC(=O)c1cc(C(F)(F)F)ccc1F)C(=O)N1CCC2(CC1)C(=O)N(C)C(=O)N2c1ccn(C)n1` [Example 16, (R)-2-Fluoro-N-(3-methyl-1-(3-methyl-1-(1-methyl-1H-pyrazol-3-yl)-2,4-dioxo-1,3,8-triazaspiro[4.5]decan-8-yl)-1-oxobutan-2-yl)-5-(trifluoromethyl)benzamide] belongs no less than 1000 nM; to `CC(C)[C@@H](NC(=O)c1cc(C(F)(F)F)ccc1F)C(=O)N1CCC2(CC1)C(=O)N(C)C(=O)N2c1cnn(C)c1` [Example 17, (R)-2-Fluoro-N-(3-methyl-1-(3-methyl-1-(1-methyl-1H-pyrazol-4-yl)-2,4-dioxo-1,3,8-triazaspiro[4.5]decan-8-yl)-1-oxobutan-2-yl)-5-(trifluoromethyl)benzamide], no less than 1000 nM; to `CCc1ccc(F)c(C(=O)N[C@@H](C(=O)N2CCC3(CC2)C(=O)N(C)C(=O)N3c2ccc3cnc(C)n3c2)C(C)C)c1` [Example 18, (R)-5-Ethyl-2-fluoro-N-(3-methyl-1-(3-methyl-1-(3-methylimidazo[1,5-a]pyridin-6-yl)-2,4-dioxo-1,3,8-triazaspiro[4.5]decan-8-yl)-1-oxobutan-2-yl)benzamide], less than 500 nM.
With `Cc1nc2ccc(N3C(=O)N(C)C(=O)C34CCN(C(=O)[C@H](NC(=O)c3cc(C(F)(F)F)ccc3F)C(C)C)CC4)cc2[nH]1` [Example 19, (R)-2-Fluoro-N-(3-methyl-1-(3-methyl-1-(2-methyl-1H-benzo[d]imidazol-6-yl)-2,4-dioxo-1,3,8-triazaspiro[4.5]decan-8-yl)-1-oxobutan-2-yl)-5-(trifluoromethyl)benzamide trifluoroacetic Acid Salt], the IC50 is no less than 1000 nM.
Next, `CC(C)[C@@H](NC(=O)c1cc(C(F)(F)F)ccc1F)C(=O)N1CCC2(CC1)C(=O)N(C)C(=O)N2c1cnc2[nH]ccc2c1` [Example 20, (R)-2-Fluoro-N-(3-methyl-1-(3-methyl-2,4-dioxo-1-(1H-pyrrolo[2,3-b]pyridin-5-yl)-1,3,8-triazaspiro[4.5]decan-8-yl)-1-oxobutan-2-yl)-5-(trifluoromethyl)benzamide]: less than 500 nM.
To `CC(C)[C@@H](NC(=O)c1cc(C(F)(F)F)ccc1F)C(=O)N1CCC2(CC1)C(=O)N(C)C(=O)N2c1ccc2c(c1)OCCN2` [Example 21, (R)—N-(1-(1-(3,4-Dihydro-2H-benzo[b][1,4]oxazin-7-yl)-3-methyl-2,4-dioxo-1,3,8-triazaspiro[4.5]decan-8-yl)-3-methyl-1-oxobutan-2-yl)-2-fluoro-5-(trifluoromethyl)benzamide] belongs less than 500 nM.
